Measurements published in US12252488B2 (Nimbus Saturn, Inc., priority 2021, dated 2025).

What follows are compounds tested against T1, HPK1 (Homo sapiens, UniProt Q92918) (assay: HPK1 biochemical enzyme assay (microfluidic mobility shift assay)). Conditions: 1000 uM (1 mM) ATP; Caliper mobility shift; 1.5 nM HPK1; 30 min preincubation; read-out: HPK1 1000UMATP caliper IC50.
T1 construct: purchased Invitrogen
Outline: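 Microfluidic mobility-shift readout with 1.5 nM HPK1 in pH 7.4 buffer; compounds (ten-point curves, top 3 μM final) preincubated 30 min with enzyme/substrate. Reaction started with 1 mM ATP and 1 μM substrate plus 5 mM MgCl2, run 60 min at RT. IC50 values binned into activity classes.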

T1 sequence (Q92918 whole entry): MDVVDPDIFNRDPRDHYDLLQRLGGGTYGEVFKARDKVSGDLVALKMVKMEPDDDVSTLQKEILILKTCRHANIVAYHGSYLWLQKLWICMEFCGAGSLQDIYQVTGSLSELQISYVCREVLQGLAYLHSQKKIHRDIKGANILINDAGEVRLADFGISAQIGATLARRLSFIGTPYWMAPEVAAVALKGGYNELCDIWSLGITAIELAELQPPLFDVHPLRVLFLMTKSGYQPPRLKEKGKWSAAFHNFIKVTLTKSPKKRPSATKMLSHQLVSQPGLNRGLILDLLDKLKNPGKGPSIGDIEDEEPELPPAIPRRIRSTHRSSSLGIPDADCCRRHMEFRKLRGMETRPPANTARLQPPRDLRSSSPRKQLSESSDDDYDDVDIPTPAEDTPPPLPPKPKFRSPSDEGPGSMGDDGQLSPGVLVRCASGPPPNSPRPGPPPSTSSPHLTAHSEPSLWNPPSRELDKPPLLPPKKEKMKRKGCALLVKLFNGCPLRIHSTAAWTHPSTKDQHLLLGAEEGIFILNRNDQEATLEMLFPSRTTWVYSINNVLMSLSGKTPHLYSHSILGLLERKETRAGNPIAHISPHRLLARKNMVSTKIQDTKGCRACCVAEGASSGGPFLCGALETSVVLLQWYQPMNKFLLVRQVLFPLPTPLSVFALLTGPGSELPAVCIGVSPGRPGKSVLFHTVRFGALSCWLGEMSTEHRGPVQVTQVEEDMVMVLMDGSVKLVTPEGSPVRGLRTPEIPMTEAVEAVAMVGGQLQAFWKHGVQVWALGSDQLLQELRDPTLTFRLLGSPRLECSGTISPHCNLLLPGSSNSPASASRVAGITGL

| Compound | IC50 |
| --- | --- |
| COc1cc(-c2cc(Nc3ccc(N4CCC(O)CC4)cn3)c3c(=O)[nH]ccc3n2)c(F)cc1CN1CCCCC1 [I-216, 2-[2-fluoro-5-methoxy-4-(1-piperidyl-methyl)phenyl]-4-[[5-(4-hydroxy-1-piperidyl)-2-pyridyl]amino]-6H-1,6-naphthyridin-5-one] | > 1000 nM |
| COc1cc(-c2cc(Nc3cc(C4CCOC4)[nH]n3)c3c(=O)[nH]ccc3n2)c(F)cc1C(=O)N1CCCCC1 (stereo not shown) [I-225, 2-[2-fluoro-5-methoxy-4-(piperidine-1-carbonyl)phenyl]-4-[(5-THF-3-yl-1H-pyrazol-3-yl)amino]-6H-1,6-naphthyridin-5-one] | > 1000 nM |
| O=C1Cc2cc(-c3cc(Nc4ccc(N5CCC(O)CC5)cn4)c4c(=O)[nH]ccc4n3)cnc2N1 [I-226, 4-[[5-(4-hydroxy-1-piperidyl)-2-pyridyl]amino]-2-(2-oxo-1,3-dihydro-pyrrolo[2,3-b]pyridin-5-yl)-6H-1,6-naphthyridin-5-one] | ≤ 100 nM |
| CN1CCN(c2ccc(Nc3cc(-c4cnc5c(c4)CC(=O)N5)nc4cc[nH]c(=O)c34)nc2)CC1 [I-227, 4-[[5-(4-methyl-piperazin-1-yl)-2-pyridyl]amino]-2-(2-oxo-1,3-dihydro-pyrrolo[2,3-b]pyridin-5-yl)-6H-1,6-naphthyridin-5-one] | ≤ 100 nM |
| CCn1ccc(Nc2cc(-c3cc(OC)c(C(=O)N4CCCCC4)cc3F)nc3cc[nH]c(=O)c23)nc1=O [I-228, 4-((1-ethyl-2-oxo-1,2-dihydropyrimidin-4-yl)amino)-2-(2-fluoro-5-methoxy-4-(piperidine-1-carbonyl)phenyl)-1,6-naphthyridin-5(6H)-one] | ≤ 100 nM |
| COc1cc(-c2cc(Nc3ccc(N4C[C@H]5COC[C@H]5C4)cn3)c3c(=O)[nH]ccc3n2)c(F)cc1C(=O)N1CCCCC1 [I-229, 4-[[5-[(3aR,6aS)-1,3,3a,4,6,6a-hexahydro-furo[3,4-c]pyrrol-5-yl]-2-pyridyl]amino]-2-[2-fluoro-5-methoxy-4-(piperidine-1-carbonyl)phenyl]-6H-1,6-naphthyridin-5-one] | 100 to 1000 nM |
| COc1cc(-c2cc(Nc3ccc(N4CCCCC4)cn3)c3c(=O)[nH]ccc3n2)c(F)cc1C(=O)N1CCCCC1 [I-232, 2-[2-fluoro-5-methoxy-4-(piperidine-1-carbonyl)phenyl]-4-[[5-(1-piperidyl)-2-pyridyl]amino]-6H-1,6-naphthyridin-5-one] | ≤ 100 nM |
| O=C(C1CC1)N1CCC2(CCN(c3cc(Nc4ccc(N5CCC(O)CC5)cn4)c4c(=O)[nH]ccc4n3)CC2)C1 [I-233, 2-[2-(cyclopropanecarbonyl)-2,8-diazaspiro[4.5]decan-8-yl]-4-[[5-(4-hydroxy-1-piperidyl)-2-pyridyl]amino]-6H-1,6-naphthyridin-5-one] | ≤ 100 nM |
| COc1cc(-c2cc(Nc3cccc(N4CCNCC4)n3)c3c(=O)[nH]ccc3n2)c(F)cc1C(=O)N1CCCCC1 [I-234, 2-[2-fluoro-5-methoxy-4-(piperidine-1-carbonyl)phenyl]-4-[(6-piperazin-1-yl-2-pyridyl)amino]-6H-1,6-naphthyridin-5-one] | ≤ 100 nM |
| O=c1[nH]ccc2nc(N3CCC4(CCNC4)CC3)cc(Nc3ccc(N4CCC(O)CC4)cn3)c12 [I-235, 2-(2,8-diazaspiro[4.5]decan-8-yl)-4-[[5-(4-hydroxy-1-piperidyl)-2-pyridyl]amino]-6H-1,6-naphthyridin-5-one] | ≤ 100 nM |
| O=c1[nH]ccc2nc(N3CCC4(CCCN4)CC3)cc(Nc3ccc(N4CCC(O)CC4)cn3)c12 [I-236, 2-(1,8-diazaspiro [4.5]decan-8-yl)-4-[[5-(4-hydroxy-1-piperidyl)-2-pyridyl]amino]-6H-1,6-naphthyridin-5-one] | 100 to 1000 nM |
| O=c1[nH]ccc2nc(N3CCC4(CCCNC4)CC3)cc(Nc3ccc(N4CCC(O)CC4)cn3)c12 [I-239, 2-(2,9-diazaspiro [5.5]undecan-9-yl)-4-[[5-(4-hydroxy-1-piperidyl)-2-pyridyl]amino]-6H-1,6-naphthyridin-5-one] | 100 to 1000 nM |
| COc1cc(-c2cc(Nc3ccc(N4CCC(O)CC4)cn3)c3c(=O)[nH]ccc3n2)c(F)c(F)c1C(=O)N1CCCCC1 [I-241, 2-[2,3-difluoro-5-methoxy-4-(piperidine-1-carbonyl)phenyl]-4-[[5-(4-hydroxy-1-piperidyl)-2-pyridyl]amino]-6H-1,6-naphthyridin-5-one] | 100 to 1000 nM |
| COc1cc(-c2cc(Nc3ccc(C#N)cn3)c3c(=O)[nH]ccc3n2)c(F)cc1C(=O)N1CCCCC1 [I-242, 6-[[2-[2-fluoro-5-methoxy-4-(piperidine-1-carbonyl)phenyl]-5-oxo-6H-1,6-naphthyridin-4-yl]amino] pyridine-3-carbonitrile] | 100 to 1000 nM |
| COc1cc(-c2cc(Nc3ccc(C4CCNCC4)cn3)c3c(=O)[nH]ccc3n2)c(F)cc1C(=O)N1CCCCC1 [I-245, 2-[2-fluoro-5-methoxy-4-(piperidine-1-carbonyl)phenyl]-4-[[5-(4-piperidyl)-2-pyridyl]amino]-6H-1,6-naphthyridin-5-one] | ≤ 100 nM |

Next, values leading:

| IC50 | Compound |
| --- | --- |
| 100 to 1000 nM | COc1cc(-c2cc(Nc3ccc(N4CCC(O)CC4)cn3)c3c(=O)[nH]ccc3n2)c(F)cc1CN(C)C [I-215, 2-(4-((Dimethylamino)methyl)-2-fluoro-5-methoxyphenyl)-4-((5-(4-hydroxypiperidin-1-yl)pyridin-2-yl)amino)-1,6-naphthyridin-5(6H)-one] |
| 100 to 1000 nM | CNCc1ccc(F)c(-c2cc(Nc3ccc(N4CCC(O)CC4)cn3)c3c(=O)[nH]ccc3n2)c1 [I-217, 2-[2-fluoro-5-(methyl-amino-methyl)phenyl]-4-[[5-(4-hydroxy-1-piperidyl)-2-pyridyl]amino]-6H-1,6-naphthyridin-5-one] |
| ≤ 100 nM | CNCc1ccc(-c2cc(Nc3ccc(N4CCC(O)CC4)cn3)c3c(=O)[nH]ccc3n2)c(F)c1 [I-218, 2-[2-fluoro-4-(methyl-amino-methyl)phenyl]-4-[[5-(4-hydroxy-1-piperidyl)-2-pyridyl]amino]-6H-naphthyridin-5-one] |
| ≤ 100 nM | CC1(C(=O)Nc2ccc(-c3cc(Nc4ccc(N5CCNCC5)cn4)c4c(=O)[nH]ccc4n3)c(F)c2)CCC1 [I-219, N-[3-fluoro-4-[5-oxo-4-[(5-piperazin-1-yl-2-pyridyl)amino]-6H-1,6-naphthyridin-2-yl]phenyl]-1-methyl-cyclobutane-carboxamide] |
| ≤ 100 nM | O=c1[nH]ccc2nc(-c3c(F)ccc4c3CCNC4)cc(Nc3ccc(N4CCC(O)CC4)cn3)c12 [I-220, 2-(6-fluoro-1,2,3,4-tetrahydro-isoquinolin-5-yl)-4-[[5-(4-hydroxy-1-piperidyl)-2-pyridyl]amino]-6H-1,6-naphthyridin-5-one] |
| 100 to 1000 nM | CNC1(c2ccc(F)c(-c3cc(Nc4ccc(N5CCC(O)CC5)cn4)c4c(=O)[nH]ccc4n3)c2)CC1 [I-221, 2-[2-fluoro-5-[1-(methyl-amino)cyclopropyl]phenyl]-4-[[5-(4-hydroxy-1-piperidyl)-2-pyridyl]amino]-6H-1,6-naphthyridin-5-one] |
| ≤ 100 nM | O=C(Nc1ccc(-c2cc(Nc3ccc(N4CCC(O)CC4)cn3)c3c(=O)[nH]ccc3n2)c(F)c1)C1(C(F)F)CC1 [I-222] |
| ≤ 100 nM | CCC1(C(=O)Nc2ccc(-c3cc(Nc4ccc(N5CCC(O)CC5)cn4)c4c(=O)[nH]ccc4n3)c(F)c2)CC1 [I-223, 1-ethyl-N-[3-fluoro-4-[4-[[5-(4-hydroxy-1-piperidyl)-2-pyridyl]amino]-5-oxo-6H-1,6-naphthyridin-2-yl]phenyl] cyclopropane-carboxamide] |
| 100 to 1000 nM | CNC1CCCc2c1ccc(F)c2-c1cc(Nc2ccc(N3CCC(O)CC3)cn2)c2c(=O)[nH]ccc2n1 (stereo not shown) [I-224, 2-[6-fluoro-1-(methyl-amino)tetralin-5-yl]-4-[[5-(4-hydroxy-1-piperidyl)-2-pyridyl]amino]-6H-1,6-naphthyridin-5-one] |
| ≤ 100 nM | COc1cc(-c2cc(Nc3ccc(N4CCC(O)CC4)cn3)c3c(=O)[nH]ccc3n2)c(F)cc1C(=O)N(C)C [I-230, 5-fluoro-4-[4-[[5-(4-hydroxy-1-piperidyl)-2-pyridyl]amino]-5-oxo-6H-1,6-naphthyridin-2-yl]-2-methoxy-N,N-dimethyl-benzamide] |
| 100 to 1000 nM | O=C(c1cc(F)c(-c2cc(Nc3ccc(N4CCC(O)CC4)cn3)c3c(=O)[nH]ccc3n2)cc1F)N1CCCCC1 [I-231, 2-[2,5-difluoro-4-(piperidine-1-carbonyl)phenyl]-4-[[5-(4-hydroxy-1-piperidyl)-2-pyridyl]amino]-6H-1,6-naphthyridin-5-one] |
| 100 to 1000 nM | CN(C)C1CCc2c1ccc(-c1cc(Nc3ccc(N4CCC(O)CC4)cn3)c3c(=O)[nH]ccc3n1)c2F (stereo not shown) [I-237, 2-[1-(dimethyl-amino)-4-fluoro-indan-5-yl]-4-[[5-(4-hydroxy-1-piperidyl)-2-pyridyl]amino]-6H-1,6-naphthyridin-5-one] |
| 100 to 1000 nM | CN(C)C1CCc2cc(-c3cc(Nc4ccc(N5CCC(O)CC5)cn4)c4c(=O)[nH]ccc4n3)c(F)cc21 (stereo not shown) [I-238, 2-[1-(dimethyl-amino)-6-fluoro-indan-5-yl]-4-[[5-(4-hydroxy-1-piperidyl)-2-pyridyl]amino]-6H-1,6-naphthyridin-5-one] |
| 100 to 1000 nM | CCC1(C(=O)Nc2ccc(-c3cc(Nc4ccc(N5CCNCC5)cn4)c4c(=O)[nH]ccc4n3)c(F)c2)CCC1 [I-240, 1-ethyl-N-[3-fluoro-4-[5-oxo-4-[(5-piperazin-1-yl-2-pyridyl)amino]-6H-1,6-naphthyridin-2-yl]phenyl] cyclobutane carboxamide] |
| 100 to 1000 nM | O=c1[nH]ccc2nc(-c3cc(C4CCCN4)ccc3F)cc(Nc3ccc(N4CCC(O)CC4)cn3)c12 (stereo not shown) [I-243, 2-(2-fluoro-5-pyrrolidin-2-yl-phenyl)-4-[[5-(4-hydroxy-1-piperidyl)-2-pyridyl]amino]-6H-1,6-naphthyridin-5-one] |
| ≤ 100 nM | CN(C)C1CCc2cc(F)c(-c3cc(Nc4ccc(N5CCC(O)CC5)cn4)c4c(=O)[nH]ccc4n3)cc21 (stereo not shown) [I-244, 2-[3-(dimethyl-amino)-6-fluoro-indan-5-yl]-4-[[5-(4-hydroxy-1-piperidyl)-2-pyridyl]amino]-6H-1,6-naphthyridin-5-one] |
